The values below come from PubChem BioAssay AID2031 (NMMLSC, 2009).

In this test the target is Rab7 GTPase wild-type (dog), GST fusion. In words: Rab7 GTP binding inhibitors, analog potency, SAR follow-up, biochemical, oxadiazole analogs, multiplex bead flow cytometry (AID 2031). To be noted: bead-based flow cytometry, Bodipy-FL-GTP binding; Ki calculated from EC50.
As usually defined, the Ki is the dissociation constant of the complex between target and ligand, obtained from inhibition or displacement. For the molecule `COc1ccc(-c2noc(CCC(=O)N3CCN(c4ccccc4F)CC3)n2)cc1`, the Ki is 0.04 µM.

On to `Cc1ccc(C)c(N2CCN(C(=O)CCc3nc(-c4ccc(Br)cc4)no3)CC2)c1`, for which the Ki is 0.1 µM.

With `Cc1ccc(-c2noc(CCC(=O)N3CCN(c4cc(C)ccc4C)CC3)n2)cc1`, the Ki is 0.29 µM.

On to `COc1ccc(-c2noc(CCC(=O)N3CCN(c4cc(C)ccc4C)CC3)n2)cc1`, for which the inhibitory constant (Ki) is 0.16 µM.

On to `Cc1ccc(C)c(N2CCN(C(=O)CCc3nc(-c4ccccc4)no3)CC2)c1`, for which the Ki is 0.08 µM.

`Cc1ccc(C)c(N2CCN(C(=O)CCc3nc(-c4cccc(Br)c4)no3)CC2)c1`: the Ki was 0.23 µM.

Regarding `COc1ccc(-c2noc(CCC(=O)N3CCN(c4cccc(C)c4C)CC3)n2)cc1`, the Ki is 0.1 µM.

In the case of `COc1cccc(-c2noc(CCC(=O)N3CCN(c4cc(C)ccc4C)CC3)n2)c1`, the Ki is 0.22 µM.

As for `COc1ccc(-c2noc(CCC(=O)N3CCN(c4ccccc4C(F)(F)F)CC3)n2)cc1`, the Ki is 0.13 µM.

Consider `Cc1cccc(-c2noc(CCC(=O)N3CCN(c4cc(C)ccc4C)CC3)n2)c1`, for which the Ki was 0.07 µM.

On to `Cc1ccc(C)c(N2CCN(C(=O)CCc3nc(-c4ccccc4Br)no3)CC2)c1`, for which the Ki was 0.27 µM.

On to `Cc1ccc(C)c(N2CCN(C(=O)CCc3nc(-c4ccccc4C)no3)CC2)c1`, for which the Ki was 0.36 µM.

Consider `Cc1ccc(C)c(N2CCN(C(=O)CCc3nc(-c4cccc(C(F)(F)F)c4)no3)CC2)c1`, for which the Ki is 0.05 µM.

As to `Cc1ccc(C)c(N2CCN(C(=O)CCc3nc(-c4ccc(Cl)cc4)no3)CC2)c1`, the Ki is 0.19 µM.

Take `Cc1ccc(C)c(N2CCN(C(=O)CCc3nc(-c4cccc(F)c4)no3)CC2)c1`: the Ki is 0.51 µM.

For the molecule `COc1ccc(-c2noc(CCC(=O)N3CCN(c4ccccc4Br)CC3)n2)cc1`, the Ki is 0.15 µM.

In the case of `COc1ccc(-c2cc(CCC(=O)N3CCN(c4cc(C)ccc4C)CC3)on2)cc1`, the Ki was 0.02 µM.

On to `COc1ccc(-c2noc(CCC(=O)N3CCC(c4cc(C)ccc4C)CC3)n2)cc1`, for which the Ki is 0.09 µM.

For `COc1ccc(-c2noc(CCC(=O)N3CCN(c4ccccc4Cl)CC3)n2)cc1`, the Ki is 0.15 µM.

`COc1ccc(-c2noc(CCC(=O)N3CCN(c4cccc(Cl)c4)CC3)n2)cc1`: the inhibition constant (Ki) is 2.03 µM.

On to `Cc1ccc(C)c(N2CCN(C(=O)CCc3nc(-c4ccc(F)cc4)no3)CC2)c1`, for which the Ki is 0.04 µM.

`COc1ccc(-c2noc(CCCC(=O)N3CCN(c4cc(C)ccc4C)CC3)n2)cc1`: the Ki was 0.94 µM.
